Source: patent publication US20150056166A1, “FLAVONE DERIVATIVES AND THEIR USE” (Twincore GmbH, priority 2012, published 2015)
Like-named read-outs stand apart in the source and are kept apart here.

What was measured:
H77c (GT1a) = assay: Luciferase infection assay, chimeric reporter virus H77c/1a/R2a in Huh7-Lunet/CD81 cells; type: cell-based, HCV; details: Hepatitis C virus, Huh-7, 72 h
[1] = test system: cell culture derived particles from genotype 1a, 1b, 2b, 3a, 4a, 5a and 6a; assay: Genotype panel of chimeric reporter viruses, summary statement; type: cell-based, HCV; details: Hepatitis C virus
JcR-2a virus particles = assay: Antiviral activity against early steps of HCV cell entry, synchronized JcR-2a infection (FIG. 3); type: cell-based; details: Hepatitis C virus
Procedure: FIG. 3: BJ486K inhibits cell entry post virus attachment. The design of the JcR-2a reporter virus construct is given at the top. Huh7-Lunet/CD81 cells were inoculated with concentrated JcR-2a particles at 4° C. for 60 minutes. Subsequently, unbound virus particles were washed away and cells were shifted to 37° C. to permit synchronized cell entry. According to the 8 experimental protocols depicted in the middle, various cell entry inhibitors including heparin (50 μg/ml), ITX5061 (10 μM), CD81-specific antibody JS-81 (2 μg/ml) and BJ486K (20 μM) were either present during inoculation (protocol 1) or were added at different time points after inoculation (protocols 2 to 8). In each case, inhibitor was present for 4 h (dashed line) and was then washed away. Efficiency of cell entry was determined 48 h post inoculation by determination of luciferase activity and is expressed relative to control infections conducted in the presence of solvent alone (DMSO). Mean values of three independent experiments each with quadruplicate measurements including the standard deviation are shown.
JcR-2a virus particles were incubated with Huh7-Lunet/CD81 cells seeded as described above for 1 h at 4° C. to synchronize cell entry. Various inhibitors including 50 μg/ml heparin (Sigma-Aldrich), CD81-specific antibody JS-81 (2 μg/ml; Becton Dickinson), ITX 5061 (10 μM) or BJ486K (20 μM), were added during virus inoculation (protocol 1) or at indicated time points after virus inoculation (protocol 2-8). After 4 h inhibitor treatment, medium was changed to fresh culture fluid without inhibitors and the cells were lysed 48 h after inoculation as described above. Efficiency of infection was determined by luciferase assay using a tube luminometer (Lumat LB9507, Berthold, Freiburg, Germany).
To resolve which step of HCV cell entry is inhibited by BJ486K, we assessed its antiviral activity when administered at different time points during the early phase of infection. To this end, Huh7-Lunet/CD81 cells were inoculated for one hour at 4° C. with a reporter virus prepared in the absence of drugs. […]

[2] = test system: subgenomic JFH1 luciferase replicon; assay: HCV RNA translation and replication, subgenomic luciferase replicon in Huh7-Lunet/CD81 cells; type: cell-based; details: up to a dose of 10 μM, 72 h post transfection
Procedure: (A) Huh7-Lunet/CD81 cells were transfected with the subgenomic luciferase replicon depicted at the top. Drugs were added 4 h post transfection and the level of HCV RNA translation and RNA replication was quantified by luciferase assays 72 h post transfection. Mean values of three independent experiments each with quadruplicate measurements including the standard deviation are shown. (B) Cells were transfected with the Jc1 chimera depicted above and drugs were added 4 h later. HCV virus release in the presence or absence of given compounds was determined by quantification of intracellular and extracellular core protein levels using a core-specific ELISA. Mean values of three independent experiments with single measurements including the error range are given. (C) Huh7-Lunet/CD81 cells were inoculated with Luc-Jc1 reporter viruses prepared in the absence of drugs. […] Infectivity was determined 72 h later by luciferase assays and compared to DMSO-treated controls. […]
To characterize the antiviral effect of BJ486K, the impact of BJ486K on the steps of HCV RNA translation and replication was assessed. To this end, Huh7-Lunet/CD81 cells were transfected with a subgenomic JFH1 luciferase replicon and RNA replication was monitored 72 h later by luciferase assays. […]

J8 (GT2b) = assay: Luciferase infection assay, chimeric reporter virus J8/2b/R2a in Huh7-Lunet/CD81 cells; type: cell-based, HCV; details: Hepatitis C virus, Huh-7, 72 h
ED43 (GT4a) = assay: Luciferase infection assay, chimeric reporter virus ED43/4a/R2a in Huh7-Lunet/CD81 cells; type: cell-based, HCV; details: Hepatitis C virus, Huh-7, 72 h
SA13 (GT5a) = assay: Luciferase infection assay, chimeric reporter virus SA13/5a/R2a in Huh7-Lunet/CD81 cells; type: cell-based, HCV; details: Hepatitis C virus, Huh-7, 72 h
Jc1 [3] = assay: Infection of DMSO-differentiated Huh7-Lunet/CD81 cells with Jc1, limiting dilution assay; type: cell-based, HCV; details: virus production monitored for 12 days
Source text: Next, we investigated if combination of CsA, an inhibitor of HCV RNA-replication in vitro and in vivo and also an immunosuppressive drug used in the HCV post-transplant setting, with BJ486K would increase antiviral potency. To this end, we challenged Huh7-Lunet/CD81 cells differentiated by DMSO-treatment with the highly infectious Jc1 chimera in the presence of CsA, BJ486K or a combination of both drugs (FIG. 5). […] To obtain a more quantitative measure for the combined antiviral effect of BJ486K and CsA, we inoculated nave Huh7-Lunet/CD81 cells with JcR-2a virus together with varying doses of both drugs (FIG. 6A).

Jc1 [4] = assay: HCV virus assembly/release, intra- and extracellular core protein after Jc1 RNA transfection; type: cell-based; details: up to a dose of 20 μM, 48 h after transfection
Procedure: (A) Huh7-Lunet/CD81 cells were transfected with the subgenomic luciferase replicon depicted at the top. Drugs were added 4 h post transfection and the level of HCV RNA translation and RNA replication was quantified by luciferase assays 72 h post transfection. Mean values of three independent experiments each with quadruplicate measurements including the standard deviation are shown. (B) Cells were transfected with the Jc1 chimera depicted above and drugs were added 4 h later. HCV virus release in the presence or absence of given compounds was determined by quantification of intracellular and extracellular core protein levels using a core-specific ELISA. Mean values of three independent experiments with single measurements including the error range are given. (C) Huh7-Lunet/CD81 cells were inoculated with Luc-Jc1 reporter viruses prepared in the absence of drugs. BJ486K was added to the cells only prior to inoculation (black), only during inoculation (grey) or selectively directly after inoculation (white) as schematically depicted at the top. Infectivity was determined 72 h later by luciferase assays and compared to DMSO-treated controls. Mean values of three independent experiments each with quadruplicate measurements including the standard deviation are shown.
Huh7-Lunet/CD81 cells were transfected with Jc1 RNA and seeded on a 6-well plate. Compounds were added 4 h later. At 48 h after transfection, cell culture supernatant was harvested and used for measuring the extracellular core amount. Cells were washed once with PBS, scraped and centrifuged for 5 min at 1000×g. Cell pellets were resuspended in 500 μl fresh culture fluid and subjected to three cycles of freeze and thaw using liquid nitrogen and a 37° C. thermo block. Samples were than centrifuged at 10,000×g for 10 min to remove cell debris and the core amount was measured (intracellular core protein) using the […] […]
To determine whether BJ486K affects virus assembly or release we transfected Huh7-Lunet/CD81 cells with Jc1 RNA and quantified intra- and extracellular levels of core protein 48 h after transfection (FIG. 2B).

For `COc1ccc(-c2cc(=O)c3c(O)c(O)c(OC)cc3o2)cc1` [BJ486K, 5,6-Dihydroxy-7-methoxy-2-(4-methoxy-phenyl)-chromen-4-one], the IC50 (H77c (GT1a)) was 2.46 µM, the IC90 (H77c (GT1a)) was 11.6 µM and the IC50 [1] was less than 4.2 µM. The inhibition at 20 µM (JcR-2a virus particles; 20 min, read-out: inhibition of HCV infection) was roughly 80%, the inhibition at 20 µM (JcR-2a virus particles; read-out: inhibition of entry) was greater than 90% and the “luciferase activity (HCV RNA translation and replication)” value [2] was “not changed”. For the same molecule, the IC50 (J8 (GT2b)) was 4.14 µM, the IC90 (J8 (GT2b)) was 8.42 µM and the IC50 (ED43 (GT4a)) was 0.74 µM. It also gave an IC90 (ED43 (GT4a)) of 1.78 µM, an IC50 (SA13 (GT5a)) of 1.39 µM and an IC90 (SA13 (GT5a)) of 5.33 µM. The “effect on infection of differentiated cells, in words” value (Jc1 [3]) was “reduced infection almost down to background levels” and the “intracellular and extracellular core protein levels” value (Jc1 [4]) was “reduced neither intracellular nor extracellular core protein levels”.
